Test results as given in patent publication US10106627B2, “Process for the preparation of polymeric biosurfactants” (priority 2014, dated 2018).

Key:
[1] = system: intracellular reactive oxygen species (ROS) in RAW 264.7 macrophages; test: LPS-induced intracellular ROS (DCFH-DA) in RAW 264.7 macrophages; format: cell-based, mouse; details: 20 μg ml^−1; LPS 100 ng/ml 24 h; LPS alone 78.97%
Method: The inhibition of intracellular reactive oxygen species (ROS) by Brevisan, Microsan and M-EPS-Au-NP in RAW 264.7 macrophages was measured using the oxygen free radical acceptor 2,7,-dichlorofluorescein diacetate (DCFH-DA) [Wang, H., and Joseph J. A. (1999) Free. […] The RAW-264.7 macrophages (2×10^6 cells/well in 24-well plate) were treated with Brevisan, Microsan and M-EPS-Au-NP at various concentrations and then stimulated with 100 ng/ml LPS for 24 h using N-acetylcysteine (NAC, 10 mM) as a ROS inhibitor. The DCF formed by intracellular ROS was measured at 485 nm excitation and 520 nm emission wavelengths using a Hitachi spectrofluorimeter. The experiments were run in triplicates and reported as the percentage of intracellular ROS formed.

[2] = system: cyclooxygenase-2 (COX-2) in RAW 264.7 cells; test: LPS-induced COX-2 immunoblot in RAW 264.7 cells; format: cell-based, mouse; details: 10 and 50 μg ml^−1, 24 h, LPS 100 ng ml^−1
Method: In independent experiments, RAW-264.7 cells were treated with Brevisan, Microsan and M-EPS-Au-NP (10 and 50 μg ml^−1 each) and then stimulated with 100 ng ml^−1 of LPS. After 24 h, the cells were washed with PBS and suspended in a lysis buffer containing 20 mM Tris, I mM EDTA, 150 mM NaCl, 1% NP-40, 0.5% sodium deoxycholate, 1 mM β-glycerophosphate, 1 mM sodium orthovanadate, 1 mM PMSF, 10 mg ml^−1 leupeptin, 20 mg ml^−1 aprotinin. The mixture was centrifuged at 10,000 rpm at 4° C. for 10 min to obtain the cell lysate. The protein content was determined by Bradford method [Bradford, M. M. (1976) Anal. Biochem. 72, 248-258]. An equal amount of total cell lysate was resolved on 12% SDS-PAGE gels and then transferred onto nitrocellulose membranes. Membranes were blocked with 5% w/v non-fat dry milk and then incubated with the primary antibodies for mouse COX-2 and β-actin with gentle shaking at 4° C. for 12 h and then incubated with peroxidase-conjugated secondary antibodies. The blots were developed using peroxidase substrates, TMB (3,3,5,5-tetramethylbenzidine)/H2O2.

[3] = Interfacial tension, Du-Nouy ring method; format: physicochemical
Method: The surface tension of the purified Microsan from Microbacterium sp. strain BS-2 and Brevisan from Brevibacillus sp. strain BS-207 was measured by Wilhelmy plate method using a Du-Nouy K100MK2 Processor Tensiometer (Krüss, Hamburg, Germany) which reduced the surface tension of water from 72 to 31.2 mN m^−1. The interfacial tension value was measured by Du-Nouy ring method and it was determined as 25.7 mN m. The critical micelle concentration (CMC) was measured by plotting the concentration of EPS as a function of surface tension. The CMC is the point where the slope of the curve abruptly changed was determined as 75 mg l^−1. The emulsification index (EI24) was determined by the addition of 4 ml of culture supernatant to 6 ml of various hydrocarbons (N-Hexadecane, tridecane, hexane, toluene and xylene) and oils (mineral oil and soybean oil) and the mixtures were vortexed for 2 min and allowed to stand for 24 h. The emulsification index (EI24) values expressed as the percentage of height of emulsified layer to the height of total liquid column.

[4] = Thermal degradation analysis (TGA/DSC); format: physicochemical
Method: The Microsan and Brevisan polymeric biosurfactants recovered and purified in Example 3 were subjected to structural characterization. The average molecular weight (Mw) of EPS was determined by gel permeation chromatography [Agilent 1100 Series HPLC system, TOSOH Corporation, Japan, equipped with a RID and a TSK G5000PWXL gel column (7.8×300 mm) and a TSK PWXL (6.0 mm×40 mm) guard column] using dextran standards ranging from 10680 to 578500 Da (Sigma, CAS No. 9004-54-0). The Fourier transform infrared spectra (FT-IR) were recorded on the Thermo-Nicolet Nexus 670 FT-IR spectrophotometer (Thermo Fisher Scientific Inc., Madison, Wis., U.S.A.) using KBr pellets containing 1% finely ground EPS samples and the spectra was collected at a resolution of 4 cm^−1 in the wavenumber region of 400-4,000 […]. The cross-polarization/magic angle spinning (CP/MAS) ^13C NMR experiments were performed on a Varian Unity Innova spectrometer operating at 400 MHz for ^1H and 100 MHz for ^13C at room temperature. […] Thermal degradation analyses of the EPS samples were measured using a DSC 821^c (Mettler Toledo GmbH, Switzerland) interfaced with Mettler Toledo Star SW (version 8.10) software. […] All of the XPS analyses were carried out in duplicates (two independent samples of each type of EPS analyzed at different time intervals). […]

Substance: β-D-glucuronyl-(1-2)-D-mannosyl-(1-4)-D-glucose [Microsan]
- LPS-induced ROS levels after treatment [1]: 55.71%
- induction of COX-2 (Western blot) [2]: significantly inhibited
- interfacial tension [3]: 25.7 mN m
- thermal degradation temperature (TGA) [4]: 280 °C
